For 2 compounds, MIC results are on record in patent publication EP0919125A1, “Synergistic antimicrobial composition” (Calgon Corporation, priority 1997, dated 1999).

Common to all, as to type: cell-based
For assay [1], the system named is Pseudomonas aeruginosa (ATCC 15442). Briefly: Microtiter test of biocidal efficacy and synergy (Kull K value), Example II, bacterium. The method, then: (§1) The minimum inhibitory concentration (MIC) for each biocide combination against Ps. aeruginosa was determined. The MIC is the least amount of biocide needed to prevent growth in the well, with growth being defined as turbidity in the medium or a "pellet" of cells which came out of the medium and settled at the bottom of the well.
(§2) Additional plates were then subcultured from the MIC plates at 24 hours following biocide addition. Subculturing was done to determine the minimum biocidal concentration (MBC). The MBC is the lowest concentration of biocide that results in no growth after subculturing and subsequent incubation.
(§3) All of the microtiter plates including the MIC plates and the MBC plates were incubated for 24 hours at 37°C. Following the 24 hour incubation period, the presence or absence of growth in each well of the plates was determined. Growth in the microtiter plates was determined with a Dynatech MR-5000 microplate reader, available from Dynatech Laboratories, Chantilly, VA, USA, the use of which will be familiar to one having ordinary skill in the art. The presence or absence of growth in each well, along with the concentration of biocide in each well, was then used to determine the synergistic properties of the biocide combinations. The synergistic properties were evaluated by determining the Kull value, or K value. The method for calculating K value is well known to those skilled in the art. In this example, the K value was determined by the following formula: K=([DBDCB] In Combination)/([DBDCB] Alone)+([Triclosan] In Combination)/([Triclosan] Alone) [formula] where "[DBDCB]
A K value of less than 1 indicates synergy between the two biocides, a K value of greater than 1 indicates antagonism between the two biocides, and a K value equal to 1 indicates an additive effect of the two biocides.
Example I was repeated with the following differences. The DBDCB was tested at the following concentrations: 200, 100, 50, 25, 12.5, 6.25 and 3.125, with concentration given in ppm active. […]

The test system is the same in assay [2]. Briefly: Microtiter test of biocidal efficacy and synergy (MIC/MBC, Kull K value), Example 1. The method, then:
An 8X stock solution of DBDCB was prepared by dissolving about 3.2 grams (g) of 20% active DBDCB in about 4 ml of methanol and diluting the volume up to about 100 ml with deionized water. The DBDCB used in the examples was obtained from Calgon Corporation, Pittsburgh, PA, as Merguard® 1200. A Triclosan 4X stock solution was prepared by dissolving about 0.16g of about 99% active Triclosan in about 5 ml of methanol and diluting the volume up to about 100 ml with deionized water. The Triclosan was obtained from Ciba Geigy as Irgasan® DP 300.
Two microtiter plates were prepared for use in the example, each microtiter plate having 8 rows, A-H, and 12 columns, 1-12. The amount of each biocide in each well of the plates is depicted below.
The amount of biocide in each well of the second microtiter plate of each set was a follows: TABLE 2
as §1
Additional plates were then subcultured from the MIC plates at 24 hours following biocide addition. Subculturing was done to determine the minimum biocidal concentration (MBC). […]

Assay [3] has as its system Candida albicans (ATCC 10231). Put plainly: Microtiter test of biocidal efficacy and synergy (Kull K value), Example II, yeast. The settings on record: ATCC10231, 120 h. As for the experimental part: as §1, §2
as §3, with “The method for calculating K value is well known to those skilled in the art. In this example, the K value was determined by the following formula: K=([DBDCB] In Combination)/([DBDCB] Alone)+([Triclosan] In Combination)/([Triclosan] Alone) [formula] where "[DBDCB]” left out

SMILES strings stand for the structures. Where two headings read alike, the source gives them in different places.

On to `N#CCCC(Br)(C#N)CBr` (stereo not shown) [DBDCB, 1,2-dibromo-2,4-dicyanobutane], for which the MIC in assay [1] (DBDCB alone, inhibition of microbial growth, ppm active, 35°C for 24 hours) came out at 200 ppm; in assay [1] (Pseudomonas aeruginosa, ATCC15442, 24 h, DBDCB alone, inhibition of microbial growth, ppm active, 35°C for 24 hours, read-out: [DBDCB] Alone), 100 µg/mL; in assay [2] (ATCC15442, concentration of DBDCB which, used alone, resulted in inhibition of microbial growth, ppm active, 24 hours at 37°C, read-out: [DBDCB] Alone), 200 µg/mL; in assay [3] (DBDCB alone, inhibition of microbial growth, ppm active, 30°C for 5 days, read-out: [DBDCB] Alone) it was 100 µg/mL.
On to `Oc1cc(Cl)ccc1Oc1ccc(Cl)cc1Cl` [Triclosan, 2,4,4'-trichloro-2'-hydroxydiphenyl ether], for which the MIC in assay [1] (Pseudomonas aeruginosa, ATCC15442, 24 h, read-out: [Triclosan] Alone) is > 100 µg/mL; in assay [2] (ATCC15442, 24 h, read-out: [Triclosan] Alone) it was 100 µg/mL; in assay [3] (read-out: [Triclosan] Alone), 12.5 µg/mL.
